This experiment concerns the target T1, NLRP3 (Homo sapiens, UniProt Q96P20).
T1 construct: endogenous in cells; host or cells: THP-1 (human monocyte, PMA-differentiated, LPS-primed, nigericin-stimulated)
The experiment can be described thus: IC50 of NLRP3 inhibitors in reducing IL-1β secretion by THP-1 cells (PMA, LPS, nigericin; ELISA). The experiment is classed as cell-based. The note with it: compound + nigericin 1 h. How it is done:
Test Example 1 Experiment on Detection of IC50 of NLRP3 Inhibitors in Reducing the Level of IL-1β Secretion by THP-1 Cells
In this experiment, we use the human monocyte THP-1 to study the inhibitory activity of NLRP3 inhibitor on the secretion of IL-Iβ by cells. Human THP-1 cells are treated with crotonol-12-tetradecanoate-13-acetate (PMA) to differentiate into mature macrophage models. Then, according to the two stages of inflammasome formation in cells (assembly and activation), the cells are stimulated with lipopolysaccharide (LPS) and nigericin in turn, ultimately promoting the extracellular release of IL-1β by THP-1 cells. The first stage of inflammasome formation involves stimulating cells with LPS (lipopolysaccharide), an agonist of the Toll-like receptor TLR4, to activate the expression of the inflammasome-associated proteins NLRP3, caspase 1, and pro-IL-1β, a precursor of IL-1β. The second stage of inflammasome formation involves the addition of the potassium ion carrier nigericin, which causes a series of membrane potential changes in THP-1 cells, destroys the cell membrane structure, causes the efflux of cellular potassium ions, further stimulates the oligomerization of NLRP3 monomers to form NLRP3 oligomers, and begins to recruit ASC and pro-caspase-1 to assemble the NLRP3 inflammasome complex containing a large amount of pro-caspase-1. The pro-caspase-1 on the activated NLRP3 inflammasome is enzymatically self-activated to form a large amount of active caspase-1. The activated caspase-1 further enzymatically promotes the conversion of pro-IL-1β into mature IL-1β that can be secreted.
(1) Cell suspensions were collected. The cells were centrifuged at 1000 rpm for 4 min, the supernatant was discarded, the cells were resuspended with 1 mL of test medium, and then the cell culture medium was gently pipetted up and down with a pipette and its tip to break up the cell aggregates. After counting the cells, the THP-1 cells were resuspended with complete RPMI medium 1640 containing PMA and seeded into 96-well plates and cultured in a 37° C., 5% CO2 incubator for 72 h.
(2) The culture medium was taken out from each well with an automatic plate washer dispenser EL406 and each well was rinsed twice with PBS. To each well, 96 μL of RPMI 1640 medium containing LPS was added. The cells were cultured in a 37° C., 5% CO2 incubator for 4 h.
(3) To each well, 2 μL of the compound and 2 μL of nigericin sodium salt were added, and the final compound concentration selected was 5000 nM, 1000 nM, 200 nM, 40 nM, 8 nM, 1.6 nM, 0.32 nM, 0 nM, respectively. The cells were cultured in a 37° C., 5% CO2 incubator for 1 h.
(4) An appropriate amount of supernatant was taken out, diluted 100 times, and the content of IL-1β in the supernatant was detected using Human IL-1 beta Valukine ELISA kit.
In general terms: ELISA stands for enzyme-linked immunosorbent assay.
T1 sequence (Q96P20 whole entry): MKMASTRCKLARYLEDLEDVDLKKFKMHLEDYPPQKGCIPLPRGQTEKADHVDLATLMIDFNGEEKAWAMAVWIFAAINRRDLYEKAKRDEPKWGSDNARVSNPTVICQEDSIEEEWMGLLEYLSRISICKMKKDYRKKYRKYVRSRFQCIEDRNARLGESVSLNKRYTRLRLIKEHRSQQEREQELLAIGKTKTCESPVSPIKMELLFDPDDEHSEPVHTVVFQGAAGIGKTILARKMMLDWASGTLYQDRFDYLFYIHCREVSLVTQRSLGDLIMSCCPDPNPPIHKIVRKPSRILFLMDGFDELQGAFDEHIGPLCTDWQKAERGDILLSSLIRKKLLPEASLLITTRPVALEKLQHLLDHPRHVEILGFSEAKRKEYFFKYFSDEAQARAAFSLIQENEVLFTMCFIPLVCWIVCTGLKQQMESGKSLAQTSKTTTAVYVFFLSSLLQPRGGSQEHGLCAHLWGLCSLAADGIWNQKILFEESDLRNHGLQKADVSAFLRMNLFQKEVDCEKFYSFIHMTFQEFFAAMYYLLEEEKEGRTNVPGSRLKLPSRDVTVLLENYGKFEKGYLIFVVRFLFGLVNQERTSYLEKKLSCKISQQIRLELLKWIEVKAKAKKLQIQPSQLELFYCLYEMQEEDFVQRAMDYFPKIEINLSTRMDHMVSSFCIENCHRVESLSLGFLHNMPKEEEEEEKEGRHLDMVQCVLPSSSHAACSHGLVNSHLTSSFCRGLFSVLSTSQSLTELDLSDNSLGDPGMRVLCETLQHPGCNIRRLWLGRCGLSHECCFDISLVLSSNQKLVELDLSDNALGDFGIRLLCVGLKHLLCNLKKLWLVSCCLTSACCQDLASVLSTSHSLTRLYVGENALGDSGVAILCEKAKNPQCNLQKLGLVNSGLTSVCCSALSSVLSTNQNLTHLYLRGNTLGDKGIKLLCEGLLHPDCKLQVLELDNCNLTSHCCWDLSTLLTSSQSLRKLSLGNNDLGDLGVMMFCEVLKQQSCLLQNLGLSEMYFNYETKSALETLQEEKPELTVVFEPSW
Take `C[C@H](C(N)=O)N1CCC[C@@H](Nc2nnc(-c3ccc(Cl)cc3O)c3ccncc23)C1` [Compound 017, (R)-2-((R)-3-((1-(4-chloro-2-hydroxyphenyl)pyrido[3,4-d]pyridazin-4-yl)amino)piperidin-1-yl) propionamide]: the IC50 came out at 17 nM.

With `Cc1cc(Cl)cc(O)c1-c1nnc(NCC(C)(C)O)c2cc(-c3ccn(C)n3)ccc12` [Compound 040, 5-chloro-2-(4-((2-hydroxy-2-methylpropyl)amino)-6-(1-methyl-1H-pyrazol-3-yl)phthalazin-1-yl)-3-methylphenol], the IC50 is 54 nM.

For the molecule `Cc1cc(Cl)cc(O)c1-c1nnc(NCC(C)(C)O)c2cc(-n3nccn3)ccc12` [Compound 028, 5-chloro-2-(4-((2-hydroxy-2-methylpropyl)amino)-6-(2H-1,2,3-triazol-2-yl)phthalazin-1-yl)-3-methylphenol], the IC50 amounted to 35 nM.

Take `Cc1cc(Cl)cc(O)c1-c1nnc(NCC(C)(C)O)c2cc(-c3cnn(C4CC4)c3)ccc12` [Compound 039, 5-chloro-2-(6-(1-cyclopropyl-1H-pyrazol-4-yl)-4-((2-hydroxy-2-methylpropyl)amino)phthalazin-1-yl)-3-methylphenol]: the IC50 came out at 73 nM.

For the molecule `Cc1cc(Cl)cc(O)c1-c1nnc(NCC(C)(C)O)c2cc(-n3ccnn3)ccc12` [Compound 058, 5-chloro-2-(4-((2-hydroxy-2-methylpropyl)amino)-6-(1H-1,2,3-triazol-1-yl)phthalazin-1-yl)-3-methylphenol], the IC50 turned out to be 158 nM.

As to `NC(=O)N1CCC[C@@H](Nc2nnc(-c3ccc(Cl)cc3O)c3ccncc23)C1` [Compound 008, (R)-3-((1-(4-chloro-2-hydroxyphenyl)pyrido[3,4-d]pyridazin-4-yl)amino)piperidin-1-formamide], the IC50 worked out at 39 nM.

On to `CC#Cc1ccc2c(-c3ccc(C(F)(F)F)cc3O)nnc(N[C@@H]3CCCN(C)C3)c2c1` [Compound 068, (R)-2-(4-((1-methylpiperidin-3-yl)amino)-6-(prop-1-yn-1-yl)phthalazin-1-yl)-5-(trifluoromethyl)phenol], for which the IC50 was 39 nM.

Take `O=C(C1CC1)N1CCC[C@@H](Nc2nnc(-c3ccc(Cl)cc3O)c3ccncc23)C1` [Compound 006, (R)-(3-((1-(4-chloro-2-hydroxyphenyl)pyrido[3,4-d]pyridazin-4-yl)amino)piperidin-1-yl)(cyclopropyl)methanone]: the IC50 was determined as 12 nM.

Turning to `CC(C)(O)CNc1nnc(-c2ccc3sccc3c2O)c2ccc(C#N)cc12` [Compound 018, 4-((2-hydroxy-2-methylpropyl)amino)-1-(4-hydroxybenzo[b]thiophen-5-yl) phthalazine-6-carbonitrile], the IC50 came out at 50 nM.

`CC#Cc1ccc2c(-c3ccc(Cl)cc3O)nnc(N[C@@H]3CCC(=O)N(CCO)C3)c2c1` [Compound 076, (R)-5-((4-(4-chloro-2-hydroxyphenyl)-7-(prop-1-yn-1-yl)phthalazin-1-yl)amino)-1-(2-hydroxyethyl) piperidin-2-one]: the IC50 was determined as 35 nM.

As for `CC#Cc1ccc2c(-c3c(C)cc(Cl)cc3O)nnc(NCC(C)(C)O)c2c1` [Compound 024-1], the IC50 was 108 nM.

Take `Cc1cc(Cl)cc(O)c1-c1nnc(NCC(C)(C)O)c2cc(-c3cnn(C)c3)ccc12` [Compound 038]: the IC50 is 42 nM.

Take `CC#Cc1ccc2c(-c3ccc(C(F)(F)F)cc3O)nnc(N[C@@H]3COCC[C@H]3O)c2c1` [Compound 067, (3R,4R)-3-((4-(2-hydroxy-4-(trifluoromethyl)phenyl)-7-(prop-1-yn-1-yl)phthalazin-1-yl)amino)tetrahydro-2H-pyran-4-ol]: the IC50 was found to be 66 nM.

For the molecule `CC(C)(C(=O)NC1CC1)N1CCC[C@@H](Nc2nnc(-c3ccc(Cl)cc3O)c3ccncc23)C1` [Compound 043, (R)-2-(3-((1-(4-chloro-2-hydroxyphenyl)pyrido[3,4-d]pyridazin-4-yl)amino)piperidin-1-yl)-N-cyclopropyl-2-methylpropionamide], the IC50 stood at 34 nM.

As to `Oc1cc(Cl)ccc1-c1nnc(N[C@@H]2CCCC(=C(F)F)C2)c2cnccc12` [Compound 080, (R)-5-chloro-2-(4-((3-(difluoromethylene)cyclohexyl)amino)pyridin[3,4-d]pyridazin-1-yl)phenol], the IC50 stood at 36 nM.

On to `CC(C(=O)NC1CC1)N1CCC[C@@H](Nc2nnc(-c3ccc(Cl)cc3O)c3ccncc23)C1` (mixture of isomers) [Compound 041, 2-((R)-3-((1-(4-chloro-2-hydroxyphenyl)pyrido[3,4-d]pyridazin-4-yl)amino)piperidin-1-yl)-N-cyclopropylpropionamide], for which the half-inhibitory concentration (IC50) was determined as 14 nM.

On to `NC(=O)CN1CCC[C@@H](Nc2nnc(-c3ccc(Cl)cc3O)c3ccncc23)C1` [Compound 009, (R)-2-(3-((1-(4-chloro-2-hydroxyphenyl)pyrido[3,4-d]pyridazin-4-yl)amino)piperidin-1-yl)acetamide], for which the IC50 came to 28 nM.

Turning to `CC#Cc1ccc2c(-c3c(C)cc(Cl)cc3O)nnc(NC[C@@H](C)O)c2c1` (mixture of isomers) [Compound 035], the IC50 was found to be 14 nM.

With `CC#Cc1ccc2c(-c3ccc(Cl)cc3O)nnc(N[C@@H]3CCCN(CCO)C3=O)c2c1` [Compound 075, (R)-3-((4-(4-chloro-2-hydroxyphenyl)-7-(prop-1-yn-1-yl)phthalazin-1-yl)amino)-1-(2-hydroxyethyl) piperidin-2-one], the IC50 amounted to 7 nM.

As for `CC#Cc1ccc2c(-c3c(O)cc(C(F)(F)F)cc3F)nnc(N[C@H]3C[C@@](C)(O)C3)c2c1` [Compound 066, 3-fluoro-2-(4-(((1S,3S)-3-hydroxy-3-methylcyclobutyl)amino)-6-(prop-1-yn-1-yl)phthalazin-1-yl)-5-(trifluoromethyl)phenol], the half-maximal inhibitory concentration (IC50) was 20 nM.

As to `CC#Cc1ccc2c(-c3ccc(Cl)cc3O)nnc(NCC(C)(C)O)c2c1` [Compound 036, 5-chloro-2-(4-((2-hydroxy-2-methylpropyl)amino)-6-(prop-1-yn-1-yl)phthalazin-1-yl)phenol], the IC50 was determined as 51 nM.

Turning to `CC#Cc1ccc2c(-c3c(O)cc(C(F)(F)F)cc3F)nnc(NC[C@H](C)O)c2c1` [Compound 071, 3-fluoro-2-(4-(((S)-2-hydroxypropyl)amino)-6-(prop-1-yn-1-yl)phthalazin-1-yl)-5-(trifluoromethyl)phenol], the IC50 turned out to be 23 nM.

Turning to `CCn1cc(-c2ccc3c(-c4c(C)cc(Cl)cc4O)nnc(NCC(C)(C)O)c3c2)cn1` [Compound 051, 5-chloro-2-(6-(1-ethyl-1H-pyrazol-4-yl)-4-((2-hydroxy-2-methylpropyl)amino)phthalazin-1-yl)-3-methylphenol], the 50% inhibitory concentration (IC50) is 46 nM.

Turning to `CC#Cc1ccc2c(-c3ccc(C(F)(F)F)cc3O)nnc(N[C@@H]3CCC[C@H](O)C3)c2c1` [Compound 070], the IC50 worked out at 42 nM.

As for `CC(C)(O)CNc1nnc(-c2ccc(Cl)cc2O)c2ccc(C#N)cc12` [Compound 001, 1-(4-chloro-2-hydroxyphenyl)-4-((2-hydroxy-2-methylpropyl)amino) phthalazin-6-carbonitrile], the IC50 was 88 nM.

As for `COC(=O)N1CCC[C@@H](Nc2nnc(-c3ccc(Cl)cc3O)c3ccncc23)C1` [Compound 010, Methyl (R)-3-((1-(4-chloro-2-hydroxyphenyl)pyrido[3,4-d]pyridazin-4-yl)amino)piperidin-1-carboxylate], the IC50 is 16 nM.

By IC50 is commonly meant the point on the concentration scale where inhibition reaches its midpoint.

The values above are taken from patent US20260216182A1, “PYRIDAZINE NLRP3 INHIBITOR COMPOUND, PHARMACEUTICAL COMPOSITION, AND PREPARATION METHOD THEREFOR AND USE THEREOF” (CHANGCHUN GENESCIENCE PHARMACEUTICAL CO., LTD., priority 2022, published 2026).
